# Measured values published in patent US20200268702A1, “METHODS OF TREATING […]” (Amarin Pharmaceuticals Ireland Limited, priority 2013, published 2020).
# System: subjects with Age-Associated Memory Impairment
# Experiment: Safety and tolerability (adverse events), 6-week AAMI study
# Format: in vivo, human
# Method: Ninety-four subjects were randomized into one of six groups: 1 g E-EPA daily (n=23), 2 g E-EPA daily (n=24), 4 g E-EPA daily (n=24), 1 g placebo daily (n=7), 2 g placebo daily (n=8), and 4 g placebo daily (n=8).
# All randomized subjects that received at least 1 dose of study medication were included in the Safety Population.
# Safety evaluations were based on the safety population. Safety and tolerability were assessed in terms of AEs, vital signs, 12-lead ECG, clinical laboratory data, medical history, and study drug compliance. Safety and tolerability data were presented by treatment group.
smiles,measurement,setting,value
"CC/C=C\C/C=C\C/C=C\C/C=C\C/C=C\CCCC(=O)OCC [AMR101, ethyl eicosapentaenoate]",nausea Probably Related to the study drug,1 g,One
same,"nausea Possibly Related to the study drug, subjects",1 g cohort,two
same,"nausea Possibly Related to the study drug, subjects",2 g cohort,one
same,SAE reported,2 g treatment group,One
same,subjects discontinued due to TEAEs,2 g treatment group,2 subjects
same,"Serious Adverse Event (worsening epigastric chest pain), relation to study drug","2 g, one subject",unrelated to the study drug
same,diarrhea Probably Related to the study drug,4 g,Another subject
same,"nausea Possibly Related to the study drug, subjects",4 g cohort,two
same,TEAEs Definitely Related to the study drug,all groups,No TEAEs were Definitely Related
same,deaths during the study,all groups,no deaths
same,treatment emergent AEs (TEAEs) reported,"ethyl-EPA treatment groups (1 g, 2 g, 4 g), placebo groups 34 events",105 events
